Bridge positions count the residues as written; N and C are the ends. Square brackets hold non-standard residues; d marks the D form. Peptide text beside a SMILES is read from it. Hyp = O=C(O)[C@@H]1C[C@@H](O)CN1; Cit = NC(=O)NCCC[C@H](N)C(=O)O
Tests used:
[1] = Physical stability of peptide analogues (Thioflavin T fibrillation); assay type: physicochemical; conditions: maximum ThT signal normalized between hAMY maximum and buffer background; 40° C., shaking, four days; pH 7 per table title
In short: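 1 h in 50 mM NaOAc pH 4 / 50 mM NaPi pH 7; + ThT 4 μM final; 40 °C, 700 rpm linear shake 5 min pre-read; ex 450, em 480 nm q10 min × 4 d; LOESS smoothing; max signal normalised to hAMY max vs buffer blank.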

[2] = biological target: T1, hAMY3 receptor (Homo sapiens, UniProt O60896+P30988); test: cAMP assay for in vitro receptor activation, hAMY3-R; assay type: cell-based; conditions: cAMP assay, hAMY3 receptor; read-out: hAMY3R EC50
T1 sequence (P30988 25-474): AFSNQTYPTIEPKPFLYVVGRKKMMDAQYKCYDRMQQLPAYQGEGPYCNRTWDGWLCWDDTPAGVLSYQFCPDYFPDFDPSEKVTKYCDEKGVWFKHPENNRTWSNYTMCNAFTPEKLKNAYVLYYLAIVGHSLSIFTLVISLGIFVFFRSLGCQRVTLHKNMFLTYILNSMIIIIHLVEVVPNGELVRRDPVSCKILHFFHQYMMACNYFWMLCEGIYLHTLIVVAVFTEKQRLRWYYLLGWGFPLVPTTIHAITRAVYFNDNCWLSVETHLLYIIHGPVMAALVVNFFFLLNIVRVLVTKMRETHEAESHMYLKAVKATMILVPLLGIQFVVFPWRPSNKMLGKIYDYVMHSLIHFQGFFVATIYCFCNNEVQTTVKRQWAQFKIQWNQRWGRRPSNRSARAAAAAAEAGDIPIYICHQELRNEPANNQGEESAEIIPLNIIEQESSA
T1 sequence (O60896 24-148 partner): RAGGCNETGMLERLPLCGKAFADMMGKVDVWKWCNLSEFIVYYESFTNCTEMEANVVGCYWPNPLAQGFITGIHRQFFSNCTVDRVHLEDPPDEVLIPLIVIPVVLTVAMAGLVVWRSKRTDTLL
In short: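 Graded compound concentrations were applied for 30 min at room temperature to stably hAMY3-expressing cells in DPBS, 0.05% casein, 0.5 mM IBMX; cAMP detected by TR-FRET.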

[3] = biological target: hAM1 receptor (Homo sapiens, UniProt O60895+Q16602); test: cAMP assay for in vitro receptor activation, hAM1-R; assay type: cell-based; conditions: cAMP assay, hAM1 receptor; read-out: hAM1R EC50
hAM1 receptor, sequence (Q16602 23-461): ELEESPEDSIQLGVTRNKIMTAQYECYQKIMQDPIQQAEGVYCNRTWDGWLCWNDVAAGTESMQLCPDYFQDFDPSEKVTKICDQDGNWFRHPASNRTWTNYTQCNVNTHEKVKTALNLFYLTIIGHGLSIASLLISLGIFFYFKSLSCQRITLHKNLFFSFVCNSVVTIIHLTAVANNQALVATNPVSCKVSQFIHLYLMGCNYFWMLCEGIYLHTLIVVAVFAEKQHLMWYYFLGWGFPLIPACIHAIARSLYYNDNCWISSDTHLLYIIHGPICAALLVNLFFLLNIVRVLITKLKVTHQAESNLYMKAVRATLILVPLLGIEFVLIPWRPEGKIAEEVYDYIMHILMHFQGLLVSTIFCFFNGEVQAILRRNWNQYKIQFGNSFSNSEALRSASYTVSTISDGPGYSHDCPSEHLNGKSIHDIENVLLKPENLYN
hAM1 receptor, sequence (O60895 43-175 partner): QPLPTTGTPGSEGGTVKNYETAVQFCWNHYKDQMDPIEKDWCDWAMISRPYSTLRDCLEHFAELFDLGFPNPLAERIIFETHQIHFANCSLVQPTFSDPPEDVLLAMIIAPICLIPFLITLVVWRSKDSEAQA
In short: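 A subcloned monoclonal line stably expressing hAM1 receptor is thawed and plated at 8000 cells/well. The assay buffer is DPBS with 0.05% casein and 0.5 mM IBMX, and receptor activation is followed by cAMP levels.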

Row | Max ThT signal (%) [1] | EC50 [2] | EC50 [3] | Compound
1 | 11.850% | 0.028 nM | > 5000 nM | CC[C@H](C)[C@H](NC(=O)[C@H](CCC(N)=O)NC(=O)[C@H](Cc1c[nH]cn1)NC(=O)[C@H](C)NC(=O)[C@H](CC(C)C)NC(=O)[C@H](Cc1c[nH]c2ccccc12)NC(=O)[C@H](CCC(N)=O)NC(=O)[C@@H](NC(=O)[C@@H](NC(=O)[C@@H]1CSSC[C@H](NC(=O)[C@@H](N)CCCCN)C(=O)N[C@@H](CC(N)=O)C(=O)N[C@@H]([C@@H](C)O)C(=O)N[C@@H](C)C(=O)N[C@@H]([C@@H](C)O)C(=O)N1)[C@@H](C)O)C(C)C)C(=O)N[C@@H](Cc1ccc(O)cc1)C(=O)N[C@@H](CCC(N)=O)C(=O)N[C@@H](Cc1ccccc1)C(=O)N[C@H](C(=O)N[C@@H](CC(=O)O)C(=O)N[C@@H](CCCCN)C(=O)N[C@@H](CC(=O)O)C(=O)N[C@@H](CCCCN)C(=O)N[C@@H](CC(=O)O)C(=O)N[C@@H](C)C(=O)N[C@H](C(=O)N[C@@H](C)C(=O)N1CCC[C@H]1C(=O)N1CCC[C@H]1C(=O)N[C@H](C(=O)N[C@@H](CC(N)=O)C(=O)N[C@H](C(=O)NCC(=O)N[C@@H](CO)C(=O)N[C@@H](CC(N)=O)C(=O)NCC(=O)N1C[C@H](O)C[C@H]1C(N)=O)C(C)C)[C@@H](C)O)C(C)C)[C@@H](C)O [compound 324] (H-KCNTATCTVQWLAHQIYQFTDKDKDAVAPPTNVGSNG[Hyp]-NH2; disulfide 2-7; N-terminus assumed)
2 | 33.250% | 0.01 nM | > 5000 nM | CC[C@H](C)[C@H](NC(=O)[C@H](CCC(N)=O)NC(=O)[C@H](Cc1c[nH]cn1)NC(=O)[C@H](C)NC(=O)[C@H](CC(C)C)NC(=O)[C@H](Cc1c[nH]c2ccccc12)NC(=O)[C@H](CCC(N)=O)NC(=O)[C@@H](NC(=O)[C@@H](NC(=O)[C@@H]1CSSC[C@H](NC(=O)[C@@H](N)CCCCN)C(=O)N[C@@H](CC(N)=O)C(=O)N[C@@H]([C@@H](C)O)C(=O)N[C@@H](C)C(=O)N[C@@H]([C@@H](C)O)C(=O)N1)[C@@H](C)O)C(C)C)C(=O)N[C@@H](Cc1ccc(O)cc1)C(=O)N[C@@H](CCC(N)=O)C(=O)N[C@@H](Cc1ccccc1)C(=O)N[C@H](C(=O)N[C@@H](CC(=O)O)C(=O)N[C@@H](C)C(=O)N[C@@H](CC(=O)O)C(=O)N[C@@H](CCCCN)C(=O)N[C@@H](CC(=O)O)C(=O)N[C@@H](CC(N)=O)C(=O)N[C@H](C(=O)N[C@@H](C)C(=O)N1CCC[C@H]1C(=O)N1CCC[C@H]1C(=O)N[C@H](C(=O)N[C@@H](CC(N)=O)C(=O)N[C@H](C(=O)NCC(=O)N[C@@H](CO)C(=O)N[C@@H](CC(N)=O)C(=O)NCC(=O)N1C[C@H](O)C[C@H]1C(N)=O)C(C)C)[C@@H](C)O)C(C)C)[C@@H](C)O [compound 328] (H-KCNTATCTVQWLAHQIYQFTDADKDNVAPPTNVGSNG[Hyp]-NH2; disulfide 2-7; N-terminus assumed)

Second part, the compound before the results:

Row | Compound | Max ThT signal (%) [1] | EC50 [2] | EC50 [3]
3 | CC[C@H](C)[C@H](NC(=O)[C@H](CCC(N)=O)NC(=O)[C@H](Cc1c[nH]cn1)NC(=O)[C@H](C)NC(=O)[C@H](CC(C)C)NC(=O)[C@H](CCCNC(N)=O)NC(=O)[C@H](CCC(N)=O)NC(=O)[C@@H](NC(=O)[C@@H](NC(=O)[C@@H]1CSSC[C@H](NC(=O)[C@@H](N)CCCCN)C(=O)N[C@@H](CC(N)=O)C(=O)N[C@@H]([C@@H](C)O)C(=O)N[C@@H](C)C(=O)N[C@@H]([C@@H](C)O)C(=O)N1)[C@@H](C)O)C(C)C)C(=O)N[C@@H](Cc1ccc(O)cc1)C(=O)N[C@@H](CCC(N)=O)C(=O)N[C@@H](Cc1ccccc1)C(=O)N[C@H](C(=O)N[C@@H](CC(=O)O)C(=O)N[C@@H](CCCCN)C(=O)N[C@@H](CC(=O)O)C(=O)N[C@@H](CCCCN)C(=O)N[C@@H](CC(=O)O)C(=O)N[C@@H](CC(N)=O)C(=O)N[C@H](C(=O)N[C@@H](C)C(=O)N1CCC[C@H]1C(=O)N1CCC[C@H]1C(=O)N[C@H](C(=O)N[C@@H](CC(N)=O)C(=O)N[C@H](C(=O)NCC(=O)N[C@@H](CO)C(=O)N[C@@H](CC(N)=O)C(=O)NCC(=O)N1C[C@H](O)C[C@H]1C(N)=O)C(C)C)[C@@H](C)O)C(C)C)[C@@H](C)O [compound 268] (H-KCNTATCTVQ[Cit]LAHQIYQFTDKDKDNVAPPTNVGSNG[Hyp]-NH2; disulfide 2-7; N-terminus assumed) | 8.850% | 0.014 nM | > 5000 nM
4 | CC[C@H](C)[C@H](NC(=O)[C@H](CCC(N)=O)NC(=O)[C@H](Cc1c[nH]cn1)NC(=O)[C@H](C)NC(=O)[C@H](CC(C)C)NC(=O)[C@H](CCCNC(=N)N)NC(=O)[C@H](CCC(N)=O)NC(=O)[C@@H](NC(=O)[C@@H](NC(=O)[C@@H]1CSSC[C@H](NC(=O)[C@@H](N)CCCCN)C(=O)N[C@@H](CC(N)=O)C(=O)N[C@@H]([C@@H](C)O)C(=O)N[C@@H](C)C(=O)N[C@@H]([C@@H](C)O)C(=O)N1)[C@@H](C)O)C(C)C)C(=O)N[C@@H](Cc1ccc(O)cc1)C(=O)N[C@@H](CCC(N)=O)C(=O)N[C@@H](Cc1ccccc1)C(=O)N[C@H](C(=O)N[C@@H](CC(=O)O)C(=O)N[C@@H](CCCCN)C(=O)N[C@@H](CC(=O)O)C(=O)N[C@@H](C)C(=O)N[C@@H](CC(=O)O)C(=O)N[C@@H](CC(N)=O)C(=O)N[C@H](C(=O)N[C@@H](C)C(=O)N1CCC[C@H]1C(=O)N1CCC[C@H]1C(=O)N[C@H](C(=O)N[C@@H](CC(N)=O)C(=O)N[C@H](C(=O)NCC(=O)N[C@@H](CO)C(=O)N[C@@H](CC(N)=O)C(=O)NCC(=O)N1C[C@H](O)C[C@H]1C(N)=O)C(C)C)[C@@H](C)O)C(C)C)[C@@H](C)O [compound 25] (H-KCNTATCTVQRLAHQIYQFTDKDADNVAPPTNVGSNG[Hyp]-NH2; disulfide 2-7; N-terminus assumed) | 33.400% | 0.008 nM | > 5000 nM
5 | CC[C@H](C)[C@H](NC(=O)[C@H](CCC(N)=O)NC(=O)[C@H](Cc1c[nH]cn1)NC(=O)[C@H](C)NC(=O)[C@H](CC(C)C)NC(=O)[C@H](CCCNC(=N)N)NC(=O)[C@H](CCC(N)=O)NC(=O)[C@@H](NC(=O)[C@@H](NC(=O)[C@@H]1CSSC[C@H](NC(=O)[C@@H](N)CCCCN)C(=O)N[C@@H](CC(N)=O)C(=O)N[C@@H]([C@@H](C)O)C(=O)N[C@@H](C)C(=O)N[C@@H]([C@@H](C)O)C(=O)N1)[C@@H](C)O)C(C)C)C(=O)N[C@@H](Cc1ccc(O)cc1)C(=O)N[C@@H](CCC(N)=O)C(=O)N[C@@H](Cc1ccccc1)C(=O)N[C@H](C(=O)N[C@@H](CC(=O)O)C(=O)N[C@@H](CCCCN)C(=O)N[C@@H](CC(=O)O)C(=O)N[C@@H](CCCCN)C(=O)N[C@@H](C)C(=O)N[C@@H](CC(N)=O)C(=O)N[C@H](C(=O)N[C@@H](C)C(=O)N1CCC[C@H]1C(=O)N1CCC[C@H]1C(=O)N[C@H](C(=O)N[C@@H](CC(N)=O)C(=O)N[C@H](C(=O)NCC(=O)N[C@@H](CO)C(=O)N[C@@H](CC(N)=O)C(=O)NCC(=O)N1C[C@H](O)C[C@H]1C(N)=O)C(C)C)[C@@H](C)O)C(C)C)[C@@H](C)O [compound 26] (H-KCNTATCTVQRLAHQIYQFTDKDKANVAPPTNVGSNG[Hyp]-NH2; disulfide 2-7; N-terminus assumed) | 0.000% | 0.008 nM | > 5000 nM
6 | CC[C@H](C)[C@H](NC(=O)[C@H](CCC(N)=O)NC(=O)[C@H](Cc1c[nH]cn1)NC(=O)[C@H](C)NC(=O)[C@H](CC(C)C)NC(=O)[C@H](CCCNC(=N)N)NC(=O)[C@H](CCC(N)=O)NC(=O)[C@@H](NC(=O)[C@@H](NC(=O)[C@@H]1CSSC[C@H](NC(=O)[C@@H](N)CCCCN)C(=O)N[C@@H](CC(N)=O)C(=O)N[C@@H]([C@@H](C)O)C(=O)N[C@@H](C)C(=O)N[C@@H]([C@@H](C)O)C(=O)N1)[C@@H](C)O)C(C)C)C(=O)N[C@@H](Cc1ccc(O)cc1)C(=O)N[C@@H](CCC(N)=O)C(=O)N[C@H](C(=O)N[C@@H](CC(=O)O)C(=O)N[C@@H](CCCCN)C(=O)N[C@@H](CC(=O)O)C(=O)N[C@@H](CCCCN)C(=O)N[C@@H](CC(=O)O)C(=O)N[C@@H](CC(N)=O)C(=O)N[C@H](C(=O)N[C@@H](C)C(=O)N1CCC[C@H]1C(=O)N1CCC[C@H]1C(=O)N[C@H](C(=O)N[C@@H](CC(N)=O)C(=O)N[C@H](C(=O)NCC(=O)N[C@@H](CO)C(=O)N[C@@H](CC(N)=O)C(=O)NCC(=O)N1C[C@H](O)C[C@H]1C(N)=O)C(C)C)[C@@H](C)O)C(C)C)[C@@H](C)O [compound 195] (H-KCNTATCTVQRLAHQIYQTDKDKDNVAPPTNVGSNG[Hyp]-NH2; disulfide 2-7; N-terminus assumed) | 6.100% | 0.112 nM | > 5000 nM

Reference: US12139520B2 (priority 2020, dated 2024)
